Seven molecules from PubChem BioAssay (NCI) can be followed below.

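Method: 48-hour compound exposure of cells in 96-well plates, five concentrations, linear interpolation of endpoints. GI50 = concentration required for 50% inhibition of growth. At the TGI there is no net growth.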

Among the test systems are BT-549 breast; SW-620 colon; LOX IMVI melanoma; HOP-92 NSCLC; OVCAR-8 ovarian; HCC-2998 colon; HCT-116 colon; MCF7 breast; SF-539 CNS; SF-268 CNS.
Holding throughout (assay): growth of human tumour cells (NCI), 48 h

As for `CC(C)(C)[Si](C)(C)OC1[C@@H](O[Si](C)(C)C(C)(C)C)[C@@H](CNC(=O)NC(=O)C(F)(F)F)O[C@H]1n1cnc2c(NC(=O)Nc3ccccc3)ncnc21` (stereo not given in full), the GI50 with BT-549 breast is 6.81 µM; with SW-620 colon, 7.53 µM; in the assay on LOX IMVI melanoma, 6.12 µM; with HOP-92 NSCLC it was 5.2 µM; in the assay with OVCAR-8 ovarian, 7.76 µM; with HCC-2998 colon, 4.28 µM. In addition, the GI50 in the assay on HCT-116 colon was 2.46 µM; with MCF7 breast it was 2.05 µM; with SF-539 CNS, 6.74 µM; in the assay on SF-268 CNS it was 6.22 µM. Besides, the TGI with BT-549 breast came to 13.4 µM; in the assay with SW-620 colon, 15.7 µM; with LOX IMVI melanoma, 12.3 µM; in the assay on HOP-92 NSCLC, 11.8 µM; in the assay with OVCAR-8 ovarian it was 16.7 µM; in the assay on HCC-2998 colon, 10.6 µM. The TGI in the assay on HCT-116 colon is 8.47 µM; in the assay on MCF7 breast it was 8.07 µM; with SF-539 CNS it was 13.2 µM; in the assay on SF-268 CNS, 13.4 µM.
Regarding `COC(=O)[C@]12CC[C@@H](C)[C@H](C)[C@@H]1C1=CC[C@@H]3[C@@]4(C)C[C@@H](O)[C@H](O)[C@@](C)(CO)[C@@H]4[C@H](O)C[C@@]3(C)[C@]1(C)CC2`, the GI50 was 12.6 µM in the assay on BT-549 breast; 18.8 µM with SW-620 colon; 14 µM in the assay with LOX IMVI melanoma; 12.9 µM in the assay with HOP-92 NSCLC; 17.7 µM in the assay on OVCAR-8 ovarian; 14.6 µM in the assay with HCC-2998 colon. Further, the GI50 in the assay on HCT-116 colon is 11.1 µM; in the assay with MCF7 breast, 12.1 µM; in the assay on SF-539 CNS, 14 µM; in the assay with SF-268 CNS, 12.6 µM. The TGI was 26.4 µM in the assay on BT-549 breast; 39.4 µM with SW-620 colon; 28 µM in the assay with LOX IMVI melanoma; 27.9 µM with HOP-92 NSCLC; 41.1 µM in the assay with OVCAR-8 ovarian; 31.2 µM in the assay with HCC-2998 colon. The TGI in the assay on HCT-116 colon was 26.4 µM; in the assay with MCF7 breast, 41 µM; in the assay on SF-539 CNS, 29 µM; with SF-268 CNS it was 27.5 µM.
With `O=C1NC(=NCc2ccccc2)S/C1=C\c1ccc2ncccc2c1`, the GI50 with BT-549 breast, in the assay with SW-620 colon, in the assay with LOX IMVI melanoma, in the assay with HOP-92 NSCLC, with OVCAR-8 ovarian and with HCC-2998 colon was > 25 µM throughout. For the same molecule, the GI50 in the assay with HCT-116 colon was > 20.7 µM; in the assay on MCF7 breast, > 25 µM; in the assay with SF-539 CNS it was > 25 µM; in the assay with SF-268 CNS it was > 25 µM. The TGI with BT-549 breast, in the assay on SW-620 colon, in the assay with LOX IMVI melanoma, in the assay with HOP-92 NSCLC, in the assay with OVCAR-8 ovarian and with HCC-2998 colon was > 25 µM in each case. The TGI in the assay on HCT-116 colon, in the assay on MCF7 breast, in the assay with SF-539 CNS and in the assay with SF-268 CNS was > 25 µM each time.
For the molecule `COc1c2ccccc2c(OC)c2[nH]c(=O)ccc12`, the GI50 is 2.07 µM with BT-549 breast; 4.2 µM in the assay with SW-620 colon; 1.84 µM in the assay with LOX IMVI melanoma; 33.5 µM in the assay on HOP-92 NSCLC; 13.6 µM in the assay on OVCAR-8 ovarian; 13.2 µM with HCC-2998 colon. Further, the GI50 was 4.98 µM with HCT-116 colon, 4.37 µM with MCF7 breast, 4.19 µM in the assay on SF-539 CNS and 9.51 µM in the assay on SF-268 CNS. The TGI is 4.51 µM with BT-549 breast; > 63.4 µM with SW-620 colon; > 23 µM in the assay on LOX IMVI melanoma; > 100 µM in the assay with HOP-92 NSCLC; > 100 µM in the assay with OVCAR-8 ovarian; > 58.8 µM with HCC-2998 colon. In addition, the TGI is > 100 µM in the assay with HCT-116 colon, > 54.8 µM with MCF7 breast, > 36.5 µM with SF-539 CNS and > 100 µM in the assay with SF-268 CNS.
As for `COc1cc(-c2nc3sccn3c2-c2ccnc(NCCNS(=O)(=O)c3ccc(F)cc3)n2)ccc1F`, the GI50 with BT-549 breast is 0.292 µM; in the assay on SW-620 colon it was 5.05 µM; with LOX IMVI melanoma it was 1.65 µM; with HOP-92 NSCLC it was 2.49 µM; in the assay with OVCAR-8 ovarian, 2.12 µM; in the assay with HCC-2998 colon it was 3.21 µM. For the same molecule, the GI50 is 0.362 µM in the assay with HCT-116 colon, 2 µM with MCF7 breast, 4.86 µM in the assay on SF-539 CNS and 2.78 µM in the assay with SF-268 CNS. Further, the TGI with BT-549 breast, in the assay on SW-620 colon, in the assay on LOX IMVI melanoma, in the assay on HOP-92 NSCLC, in the assay with OVCAR-8 ovarian and with HCC-2998 colon was > 100 µM throughout. The TGI with HCT-116 colon, in the assay on MCF7 breast, in the assay on SF-539 CNS and in the assay on SF-268 CNS was > 100 µM in each case.
On to `c1ccc(Nc2ncc(-c3ccccc3)o2)cc1`, for which the GI50 was > 25 µM with BT-549 breast; > 25 µM with SW-620 colon; 22.6 µM with LOX IMVI melanoma; > 25 µM in the assay on HOP-92 NSCLC; > 25 µM in the assay on OVCAR-8 ovarian; > 25 µM with HCC-2998 colon. Moreover, the GI50 in the assay on HCT-116 colon is 24.5 µM; with MCF7 breast, 12.4 µM; in the assay on SF-539 CNS, > 25 µM; in the assay on SF-268 CNS, > 25 µM. The TGI in the assay on BT-549 breast, in the assay on SW-620 colon, in the assay with LOX IMVI melanoma, with HOP-92 NSCLC, with OVCAR-8 ovarian and with HCC-2998 colon was > 25 µM in each case. The TGI in the assay with HCT-116 colon, in the assay on MCF7 breast, in the assay with SF-539 CNS and in the assay with SF-268 CNS was > 25 µM in each case.
Take `NC(=S)N/N=C1\c2cc(Cl)ccc2-c2c1cc(Cl)cc2[N+](=O)[O-]`: the GI50 in the assay with BT-549 breast was 3.41 µM; in the assay with SW-620 colon, 10.7 µM; in the assay with LOX IMVI melanoma it was 9.35 µM; in the assay on HOP-92 NSCLC, 2.22 µM; in the assay with OVCAR-8 ovarian it was 4.62 µM; in the assay on HCC-2998 colon it was 12.1 µM. Further, the GI50 in the assay with HCT-116 colon is 2.89 µM; in the assay with MCF7 breast, 1.98 µM; in the assay on SF-539 CNS it was 6.16 µM; in the assay on SF-268 CNS it was 9.79 µM. The TGI was 36.7 µM in the assay with BT-549 breast; > 100 µM in the assay on SW-620 colon; > 100 µM in the assay with LOX IMVI melanoma; 13.1 µM in the assay with HOP-92 NSCLC; > 100 µM in the assay with OVCAR-8 ovarian; > 100 µM in the assay with HCC-2998 colon. For the same molecule, the TGI was 27.4 µM in the assay with HCT-116 colon, 16.8 µM with MCF7 breast, 88.2 µM in the assay on SF-539 CNS and > 100 µM in the assay on SF-268 CNS.
